The source of these data is PubChem BioAssay (NCI).

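In this assay, cells in 96-well plates receive the compound at five concentrations for 48 hours. Endpoints are linearly interpolated between the surrounding concentrations. Abbreviation: GI50, concentration required for 50% inhibition of growth. The concentration for full growth arrest is given as TGI.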

Test systems include HCT-15 colon; HOP-92 NSCLC; IGROV1 ovarian; KM12 colon; NCI-H522 lung; OVCAR-5 ovarian; SK-MEL-2 melanoma; SN12C renal; UO-31 renal; SNB-75 CNS.
Assay in all cases: DTP human tumour cell line panel, 48 h

As usually defined, the GI50 is the concentration that inhibits growth by half. The term TGI denotes the concentration giving total growth inhibition. Low values mean greater sensitivity of the cells, high ones lower sensitivity of the cells.

With `CC1OC(OC2C(O)C(OCCc3ccc(O)c(O)c3)OC(CO)C2OC(=O)/C=C/c2ccc(O)c(O)c2)C(O)C(O)C1O` (centres undefined), the GI50 in the assay with HCT-15 colon is more than 100 µM; in the assay on HOP-92 NSCLC it was more than 100 µM; in the assay with IGROV1 ovarian it was 47.6 µM; in the assay with KM12 colon it was more than 100 µM; in the assay on NCI-H522 lung it was more than 100 µM; in the assay on OVCAR-5 ovarian, 19.6 µM. In addition, the GI50 in the assay on SK-MEL-2 melanoma was more than 100 µM; in the assay with SN12C renal, 20.5 µM; with UO-31 renal, 23.7 µM. Besides, the TGI in the assay with HCT-15 colon is more than 100 µM; in the assay on HOP-92 NSCLC it was more than 100 µM; in the assay on IGROV1 ovarian, more than 100 µM; in the assay on KM12 colon, more than 100 µM; in the assay with NCI-H522 lung, more than 100 µM; in the assay with OVCAR-5 ovarian, 39 µM. Further, the TGI in the assay on SK-MEL-2 melanoma is more than 100 µM; in the assay on SN12C renal, 36.8 µM; in the assay with UO-31 renal, 57.6 µM.

As to `CN(CCc1ccccn1)/[N+]([O-])=N/O` (tested in a mixture with another compound), the TGI with HCT-15 colon, in the assay on HOP-92 NSCLC, in the assay on IGROV1 ovarian, with KM12 colon, in the assay on OVCAR-5 ovarian and in the assay with SK-MEL-2 melanoma was more than 100 µM in each case. The TGI in the assay with SN12C renal, in the assay with SNB-75 CNS and in the assay on UO-31 renal was more than 100 µM throughout.

Consider `Cn1c2ccccc2c2c(=O)n(CCCC(=O)NCCc3cnc[nH]3)c3c(-c4ccccc4)nnn3c21`, for which the GI50 was 14.6 µM in the assay with HCT-15 colon; 1.35 µM in the assay with HOP-92 NSCLC; 8.16 µM with KM12 colon; 10.8 µM with OVCAR-5 ovarian; 10.3 µM in the assay with SK-MEL-2 melanoma; 8.76 µM in the assay with SN12C renal. In addition, the GI50 is 10.4 µM with SNB-75 CNS and 7.46 µM with UO-31 renal. Also, the TGI in the assay with HCT-15 colon stood at 44.1 µM; with HOP-92 NSCLC it was 5.48 µM; in the assay with KM12 colon, 16.9 µM; in the assay on OVCAR-5 ovarian, 20.3 µM; with SK-MEL-2 melanoma, 21 µM; with SN12C renal, 18.7 µM. Besides, the TGI amounted to 18.6 µM in the assay with SNB-75 CNS and 14.8 µM in the assay with UO-31 renal.

As to `CCCCCCCCC1C(C)c2c([nH]c3ccccc23)C2C(=O)N(c3ccccc3)C(=O)C21` (centres undefined), the TGI with HCT-15 colon came to 25.6 µM; with IGROV1 ovarian, 36.2 µM; in the assay on KM12 colon, 13.5 µM; in the assay on OVCAR-5 ovarian, 33.6 µM; with SK-MEL-2 melanoma, 33.3 µM; in the assay with SN12C renal, 23.8 µM. Also, the TGI with SNB-75 CNS is 39.9 µM; in the assay with UO-31 renal, 28.5 µM.

As for `Cc1nccc2c3ccc(OCc4cn(-c5ccc(Br)cc5)nn4)cc3n(CCCc3ccccc3)c12`, the GI50 with HOP-92 NSCLC is 47.4 µM; with IGROV1 ovarian it was 6.44 µM; with KM12 colon it was 2.73 µM; with OVCAR-5 ovarian, 2.15 µM; with SK-MEL-2 melanoma, more than 100 µM; in the assay with SNB-75 CNS it was 1.54 µM. The GI50 in the assay on UO-31 renal was 1.41 µM. The TGI is more than 100 µM with HOP-92 NSCLC; more than 100 µM with IGROV1 ovarian; more than 100 µM in the assay on KM12 colon; 6.72 µM in the assay with OVCAR-5 ovarian; more than 100 µM with SK-MEL-2 melanoma; 3.98 µM in the assay with SNB-75 CNS. The molecule also showed a TGI in the assay on UO-31 renal of 3.01 µM.

With `COC(=O)/C=C(C)/C=C/c1c(C)c(C(C)=O)c(C)n1C`, the TGI in the assay with HCT-15 colon is more than 100 µM; in the assay on HOP-92 NSCLC, 92.8 µM; in the assay on IGROV1 ovarian it was more than 100 µM; in the assay with KM12 colon, more than 100 µM; with NCI-H522 lung, more than 100 µM; in the assay with OVCAR-5 ovarian it was more than 100 µM. The TGI with SN12C renal and with UO-31 renal was more than 100 µM throughout.

For the molecule `CCc1cc2c(Nc3ccccc3)c3c(nc2s1)CCCC3`, the TGI in the assay with HCT-15 colon, with HOP-92 NSCLC, in the assay on IGROV1 ovarian, in the assay on KM12 colon, with OVCAR-5 ovarian and in the assay on SK-MEL-2 melanoma was more than 100 µM each time. For the same molecule, the results for the TGI with SN12C renal, in the assay with SNB-75 CNS and in the assay on UO-31 renal were more than 100 µM, 39.1 µM and more than 100 µM, respectively.

Consider `CC(/C=C1\CCC(CN(C)C)C1=O)c1cccc(Br)c1` (centres undefined), for which the TGI was determined as 34 µM in the assay on HCT-15 colon; 33.5 µM in the assay with HOP-92 NSCLC; 19.4 µM with IGROV1 ovarian; 23.9 µM in the assay with KM12 colon; 22 µM in the assay on NCI-H522 lung; 43.8 µM in the assay on OVCAR-5 ovarian. Also, the TGI is 30.5 µM in the assay on SK-MEL-2 melanoma, 43.3 µM in the assay on SN12C renal and 33.2 µM in the assay on UO-31 renal.

Consider `COc1cc(C(=O)c2cnc(-c3ccc4cc[nH]c4c3)[nH]2)cc(OC)c1OC`, for which the GI50 in the assay on HCT-15 colon is 0.0381 µM; in the assay with HOP-92 NSCLC, 0.632 µM; with IGROV1 ovarian, 0.0997 µM; in the assay on KM12 colon, 0.0313 µM; in the assay with NCI-H522 lung, less than 0.0128 µM; in the assay on OVCAR-5 ovarian it was 0.225 µM. Besides, the GI50 in the assay on SN12C renal is 0.066 µM; in the assay on UO-31 renal it was 0.153 µM. Also, the TGI was 4.96 µM in the assay with HCT-15 colon; 6.16 µM in the assay on HOP-92 NSCLC; 16.7 µM in the assay on IGROV1 ovarian; 2.16 µM in the assay on KM12 colon; 0.0913 µM in the assay on NCI-H522 lung; 23.9 µM in the assay with OVCAR-5 ovarian. Besides, the TGI in the assay with SN12C renal was determined as 14.7 µM; in the assay with UO-31 renal, 5.11 µM.

With `NS(=O)(=O)c1ccc(-n2nc(-c3ccccc3)cc2-c2cc(O)ccc2O)cc1`, the GI50 is more than 100 µM in the assay with HCT-15 colon; more than 100 µM with HOP-92 NSCLC; more than 100 µM in the assay on IGROV1 ovarian; 38.5 µM in the assay on KM12 colon; more than 100 µM in the assay on NCI-H522 lung; 25.3 µM with OVCAR-5 ovarian. The GI50 in the assay with SK-MEL-2 melanoma, with SN12C renal and in the assay with UO-31 renal was more than 100 µM each time. For the same molecule, the TGI is more than 100 µM in the assay on HCT-15 colon; more than 100 µM in the assay on HOP-92 NSCLC; more than 100 µM with IGROV1 ovarian; more than 100 µM with KM12 colon; more than 100 µM in the assay with NCI-H522 lung; 92.6 µM in the assay with OVCAR-5 ovarian. Also, the TGI in the assay with SK-MEL-2 melanoma, with SN12C renal and in the assay on UO-31 renal was more than 100 µM each time.

As to `COc1ccc2[nH]cc(C3(c4c[nH]c5ccc(OC)cc45)C(=O)Nc4ccc(Cl)cc43)c2c1`, the GI50 was 7.09 µM in the assay on HCT-15 colon; 2.2 µM with HOP-92 NSCLC; 3.28 µM with IGROV1 ovarian; 2.52 µM with KM12 colon; 4.08 µM in the assay with OVCAR-5 ovarian; 2.9 µM in the assay on SK-MEL-2 melanoma. Further, the GI50 in the assay with SN12C renal is 4.34 µM; in the assay with SNB-75 CNS it was 1.9 µM; with UO-31 renal, 2.27 µM. Besides, the TGI was more than 100 µM in the assay on HCT-15 colon; 10.3 µM with HOP-92 NSCLC; 21.2 µM with IGROV1 ovarian; 6.33 µM with KM12 colon; 43.1 µM with OVCAR-5 ovarian; 6.67 µM with SK-MEL-2 melanoma. For the same molecule, the concentration for total growth inhibition (TGI) is 18.6 µM with SN12C renal, 14 µM with SNB-75 CNS and more than 100 µM in the assay with UO-31 renal.

`O=C(CCN1CCCC1)Nc1ccc2c(Nc3ccc(Br)cc3)c3ccccc3nc2c1`: the GI50 is 1.16 µM in the assay on HCT-15 colon; 1.31 µM in the assay with HOP-92 NSCLC; 1.23 µM in the assay on IGROV1 ovarian; 1.57 µM in the assay on KM12 colon; 1.63 µM in the assay on OVCAR-5 ovarian; 1.98 µM with SK-MEL-2 melanoma. The GI50 in the assay with SN12C renal was 1.3 µM; in the assay on SNB-75 CNS, 1.37 µM; in the assay on UO-31 renal, 1.33 µM. The TGI was determined as 2.5 µM in the assay with HCT-15 colon; 2.71 µM with HOP-92 NSCLC; 2.59 µM in the assay with IGROV1 ovarian; 3.29 µM with KM12 colon; 3.03 µM in the assay with OVCAR-5 ovarian; 3.76 µM in the assay with SK-MEL-2 melanoma. The concentration for total growth inhibition (TGI) in the assay on SN12C renal amounted to 2.69 µM; with SNB-75 CNS it was 2.68 µM; with UO-31 renal, 2.61 µM.

`CCOP(=O)(OCC)C(NC(c1ccccc1)c1ccccc1)c1ccsc1` (centres undefined): the GI50 with HCT-15 colon is 16.1 µM; in the assay with HOP-92 NSCLC it was 14.3 µM; in the assay on IGROV1 ovarian, 37.6 µM; in the assay with KM12 colon, 16.7 µM; with NCI-H522 lung it was 25.2 µM; with OVCAR-5 ovarian, 16.9 µM. The GI50 is 43.4 µM with SK-MEL-2 melanoma, 16.7 µM in the assay on SN12C renal and 33.1 µM in the assay with UO-31 renal. Besides, the TGI is 84.6 µM in the assay with HCT-15 colon; 30.8 µM with HOP-92 NSCLC; more than 100 µM in the assay on IGROV1 ovarian; 37.5 µM in the assay with KM12 colon; 74.5 µM with NCI-H522 lung; 32.6 µM in the assay on OVCAR-5 ovarian. The TGI in the assay on SK-MEL-2 melanoma was more than 100 µM; in the assay on SN12C renal it was 30.3 µM; with UO-31 renal, more than 100 µM.

As to `O=C(O)CC(S)C(=O)O.[Li+].[Sb]` (centres undefined), the GI50 with HCT-15 colon is more than 100 µM; with HOP-92 NSCLC it was more than 100 µM; with IGROV1 ovarian, more than 100 µM; with KM12 colon, more than 100 µM; in the assay with OVCAR-5 ovarian it was more than 100 µM; with SK-MEL-2 melanoma it was 40.5 µM. The GI50 in the assay on SN12C renal and in the assay with UO-31 renal was more than 100 µM each time. For the same molecule, the concentration for total growth inhibition (TGI) in the assay on HCT-15 colon, in the assay on HOP-92 NSCLC, in the assay with IGROV1 ovarian, in the assay on KM12 colon, in the assay with OVCAR-5 ovarian and in the assay with SK-MEL-2 melanoma was more than 100 µM in each case. Also, the TGI in the assay on SN12C renal and in the assay with UO-31 renal was more than 100 µM in each case.

`CC(=O)CCn1[nH]c(=O)c(Cl)c(Cl)c1=O`: the TGI with HCT-15 colon, in the assay on HOP-92 NSCLC, in the assay on IGROV1 ovarian, in the assay on KM12 colon, in the assay with OVCAR-5 ovarian and with SK-MEL-2 melanoma was more than 100 µM in each case. The TGI in the assay with SN12C renal, with SNB-75 CNS and in the assay on UO-31 renal was more than 100 µM throughout.
